Test results published in patent US7795458B2, “Salt of (2S, 3S)-3-[[(1S)-1-isobutoxymethyl-3-methylbutyl] carbamoyl] oxirane-2-carboxylic acid” (Nippon Chemiphar Co., Ltd, priority 2003, dated 2010).

Columns and labels:
[1] = Comparative stability test (solid kept at 80° C. for three days, light-shaded and airtight; remaining substance by HPLC); type: physicochemical; details: for Remaining ratio(%) after 3 days at 80° C.: 10 mg solid sample, thermostat at 80° C., three days, light-shaded and airtight, HPLC; for storage stability (result in words): left at 80° C. for three days
Description: The crystalline Na salt of the invention (described in Example 9) was subjected to a comparative stability test. In the test, the Na salt was left at 80° C. for three days together with both the substance obtained by condensing the solution to dryness and the product collected by filtration and left at room temperature after recrystallization.
The crystalline K salt of the invention (described in Example 11) was subjected to a stability test in which the K salt was left at 80° C. for three days.
mobile phase: a mixture of 0.1 mol/L sodium dihydrogen phosphate reagent (pH: 3.0)/acetonitrile (5:2),
flow rate; controlled so that the retention time of (2S,3S)-3-[[(1S)-1-isobutoxymethyl-3-methylbutyl]-carbamoyl]oxirane-2-carboxylic acid would be approx. 13 minutes, and
As a sample, 10 mg of sodium or potassium (2S,3S)-3-[[(1S)-1-isobutoxymethyl-3-methylbutyl]carbamoyl]oxirane-2-carboxylate was weighed and placed in a test tube. After the sample was kept in a thermostat at 80° C. for three days under a light-shaded and airtight condition, the amount of remaining substance was measured by HPLC.
The same as those in Example 14.

cathepsin = details: background statement; cited from earlier work

| SMILES | Remaining ratio(%) after 3 days at 80° C. [1] | storage stability (result in words) [1] | cathepsin-inhibitory action (cathepsin) |
| --- | --- | --- | --- |
| CC(C)COC[C@H](CC(C)C)NC(=O)[C@H]1O[C@@H]1C(=O)[O-].[K+] [K salt (obtained in Example 11), potassium (2S,3S)-3-[[(1S)-1-isobutoxymethyl-3-methylbutyl]carbamoyl]oxirane-2-carboxylate] | 99.9% | excellent in storage stability |  |
| CC(C)COC[C@H](CC(C)C)NC(=O)[C@H]1O[C@@H]1C(=O)[O-].[Na+] [Compound A, sodium (2S,3S)-3-[[(1S)-1-isobutoxymethyl-3-methylbutyl]carbamoyl]-oxirane-2-carboxylate] |  |  | shows a cathepsin-inhibitory action |
| CC(C)COC[C@H](CC(C)C)NC(=O)[C@H]1O[C@@H]1C(=O)[O-].[Na+] [Na salt (obtained through recrystallization and drying in ai] [sodium (2S,3S)-3-[[(1S)-1-isobutoxymethyl-3-methylbutyl]carbamoyl]oxirane-2-carboxylate, reference compound] | 38-77% |  |  |
| CC(C)COC[C@H](CC(C)C)NC(=O)[C@H]1O[C@@H]1C(=O)[O-].[Na+] [Na salt (obtained in Example 9), sodium (2S,3S)-3-[[(1S)-1-isobutoxymethyl-3-methylbutyl]carbamoyl]oxirane-2-carboxylate] | 95-98% | superior to the substances for comparison in storage stability |  |
| CC(C)COC[C@H](CC(C)C)NC(=O)[C@H]1O[C@@H]1C(=O)[O-].[Na+] [Na salt (obtained according to the conventional process)] [sodium (2S,3S)-3-[[(1S)-1-isobutoxymethyl-3-methylbutyl]carbamoyl]oxirane-2-carboxylate, reference compound] | 13-77% |  |  |
